Consider 7 molecules from patent publication US5399790A, “Non-steroid and non-prostanoid inhibitors of steroid and prostaglandin transforming enzymes” (Trustees of The University of Pennsylvania, priority 1993, dated 1995).

By Km is commonly meant the concentration of substrate that gives half-maximal velocity. The Vmax is the rate approached at saturating substrate.

“Also recorded” adds a separate entry of the source.

The target of one data set is T1, cyclooxygenase (Ovis aries, UniProt P05979).
T1 construct: cyclooxygenase obtained from sheep seminal vesicle microsomes; from tissue; host or cells: sheep seminal vesicle microsomes
T1 sequence (P05979 25-600): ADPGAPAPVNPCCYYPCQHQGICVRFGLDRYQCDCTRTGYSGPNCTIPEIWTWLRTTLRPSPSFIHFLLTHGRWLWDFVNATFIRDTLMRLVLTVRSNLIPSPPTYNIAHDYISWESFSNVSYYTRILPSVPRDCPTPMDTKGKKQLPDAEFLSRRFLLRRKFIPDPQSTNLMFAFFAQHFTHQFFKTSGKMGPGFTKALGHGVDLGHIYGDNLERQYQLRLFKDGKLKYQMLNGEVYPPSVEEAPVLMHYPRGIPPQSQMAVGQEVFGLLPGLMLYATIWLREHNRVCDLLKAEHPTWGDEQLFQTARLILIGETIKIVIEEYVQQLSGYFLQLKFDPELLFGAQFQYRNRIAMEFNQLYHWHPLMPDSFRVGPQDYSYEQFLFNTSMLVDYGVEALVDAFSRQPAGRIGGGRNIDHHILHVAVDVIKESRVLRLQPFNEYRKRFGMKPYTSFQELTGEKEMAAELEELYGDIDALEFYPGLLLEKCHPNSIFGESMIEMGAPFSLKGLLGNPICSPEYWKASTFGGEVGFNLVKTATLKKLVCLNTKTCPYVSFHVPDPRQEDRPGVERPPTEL
Kind of data set: time dependent inactivation of semi-purified cyclooxygenase (oxygen consumption). The data set is classed as biochemical, sheep. To be noted: for inactivation of cyclooxygenase / prostaglandin synthases: result in words. How it is done:
Semi-purified cyclooxygenase (480 μg) was pre-incubated in 100 μl systems containing the inhibitor concentrations indicated, along with 50 mM Tris-HCl (pH=7.2), 100 μM EDTA, 1 mM phenol, 1 μM hematin, 1% Tween, and 10% DMSO. At the time intervals shown, 5 μl aliquots were removed and diluted into a 600 μl assay system containing 100 mM potassium phosphate (pH=7.2), 1 mM phenol, and 100 μM arachidonic acid. The rate of oxygen consumption was then measured. The maximum rate of oxygen uptake observed in these assays was 1.875 μmoles of oxygen consumed per minute per milligram protein.

Data set [1] has as its target T2, 3α-HSD (Rattus norvegicus, UniProt P23457).
T2 construct: the purified 3α-HSD of rat liver cytosol; from tissue; host or cells: rat liver (cytosol)
T2 sequence (P23457 1-322): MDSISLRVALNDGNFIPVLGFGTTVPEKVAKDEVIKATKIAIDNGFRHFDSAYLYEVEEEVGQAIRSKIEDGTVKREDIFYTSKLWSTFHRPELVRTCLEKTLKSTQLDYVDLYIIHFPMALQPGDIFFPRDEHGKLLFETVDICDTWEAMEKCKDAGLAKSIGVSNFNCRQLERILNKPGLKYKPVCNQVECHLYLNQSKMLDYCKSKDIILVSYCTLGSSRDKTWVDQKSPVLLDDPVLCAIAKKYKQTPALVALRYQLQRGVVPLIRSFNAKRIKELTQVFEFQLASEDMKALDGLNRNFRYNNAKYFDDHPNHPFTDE
Briefly: time dependent inactivation of purified 3α-HSD. It is filed as biochemical. To be noted: for return of enzyme activity after inactivation: gel filtration or extensive dialysis of the inactivated enzyme; for inactivation of 3α-HSD: result in words. How it is done:
3α-HSD (24 μM of purified enzyme) was incubated in systems (30 μl) containing 1.2 mM NAD^+, 10 mM potassium phosphate buffer pH 7.0, 1 mM EDTA and 5% acetonitrile as a co-solvent. Enzyme activity was followed over time by diluting an aliquot of the incubation mixture into a 1 ml assay containing: 2.3 mM NAD^+ and 75 μM androsterone in 0.1M potassium phosphate buffer pH 7.0, with 4% acetonitrile as a co-solvent. Initial rates were determined spectrophotometrically by measuring the rate of NADH formation at 340 nm. Because of the 100 fold or greater dilution of the enzyme into the assay, the initial rate measured is an indication of the enzyme activity remaining at that time. Semi-log plots of the amount of enzyme remaining vs. time are curvilinear (panel a). Initial rates of inactivation (kapp's) were estimated by taking tangents to these curves. Data was replotted as 1/kapp vs 1/allylic alcohol from which kinact (the rate constant for enzyme inactivation) and Ki (the binding constant of the allylic alcohol) were determined, (panel b).
Inactivation of 3α-HSD (24 μM) was conducted in incubations (60 μl) of 10 mM potassium phosphate buffer pH 7.0 containing 1 mM EDTA and 4% acetonitrile as a co-solvent. After the initial enzyme activity was determined (see the legend of FIG. 2 for assay composition), the concentration of inactivator indicated (.cndot.=0 μM, .circle.=2.1 μM, =4.9 μM, .gradient.=10.0 μM, =15.0 μM, []24.0 μM) was added and the sample incubated at 25° C. Over time, samples were withdrawn and diluted into the standard assay to determine the amount of enzyme activity remaining. A secondary plot of the amount of enzyme inactivated vs. the amount of inhibitor added provided the stoichiometry of inactivation when corrected for nonspecific loss of enzyme activity (panel b). The continuous line without points is a theoretical line for a stoichiometry of 1:1.
For orientation: In gel filtration, larger molecules generally elute earlier.

The test system of data set [2] is 3α-HSD and 3(17)β-HSD (Pseudomonas testosteroni), 3α,20α-HSD (Streptomyces hydrogenase), 20α-HSD (rat ovary), 3β-HSD (rat liver), alcohol dehydrogenase …. Briefly: broad screen of the alcohols as suicide substrates of dehydrogenases. The data set is classed as biochemical. To be noted: eight dehydrogenases screened. On the procedure:
A broad screen was conducted in which the allylic (I) and acetylenic alcohols (II) were examined as suicide substrates of the following enzymes: 3α-HSD and 3(17)β-HSD (Pseudomonas testosteroni), 3α,20α-HSD (Streptomyces hydrogenase), 20α-HSD (rat ovary), 3β-HSD (rat liver), alcohol dehydrogenase (yeast), lactate dehydrogenase (porcine heart) and 3α-HSD (rat liver).

Data set [3] deals with T2, 3α-HSD. Briefly: chromatography of inactivated 3α-HSD on the immobilized nucleotide analog Cibacron Blue. The data set is classed as binding. From the text: (§1) Three types of experimental evidence indicate that both the enone (III) and the acetylenic ketone (IV) alkylate the pyridine nucleotide binding domain in preference to the steroid binding site of the enzyme. […] Third, chromatographic experiments using the immobilized nucleotide analog Cibacron Blue indicate that both native enzyme and enzyme inactivated with the steroid affinity alkylator, 17β-bromoacetoxy-5α-androstan-17β-ol-3-one, bind tightly to the immobilized nucleotide analog. By contrast, enzyme inactivated by either (III) or (IV) has no affinity for the immobilized nucleotide analogue. This experimental evidence implies that the alkylators (III) and (IV) covalently modify the nucleotide binding domain of 3α-HSD.

The target of data set [4] is T2, 3α-HSD. Kind of data set: steady state kinetic measurements and protection from inactivation of 3α-HSD. The data set is classed as biochemical. The following applies: for type of inhibition versus NAD+ binding / type of inhibition versus androsterone binding: steady state kinetic measurements.
Excerpt: as §1

Substrate in data set [5]: C=CC(O)c1ccc([N+](=O)[O-])cc1
Kind of data set: enzymatic oxidation of the allylic and acetylenic alcohols by 3α-HSD in the presence of NAD+. It is filed as biochemical, rat. The following applies: other: oxidation by 3α-HSD in the presence of NAD+; pH 7.0; 25.0 °C.

Substrate in data set [6]: C#CC(O)c1ccc([N+](=O)[O-])cc1
The description is as above. The data set is classed as biochemical, rat. The following applies: other: oxidation by 3α-HSD in the presence of NAD+; pH 7.0; 25.0 °C.

Regarding `CC(=O)Oc1ccccc1C(=O)O` [acetyl salicylate, reference compound], the cyclooxygenase inactivated on cyclooxygenase (100 μM, over 20 hours) is given as 50%.

Turning to `C=CC(O)c1ccc([N+](=O)[O-])cc1` (stereo not drawn) [I, 1-(4'-nitrophenyl)-2-propen-1-ol], on 3α-HSD [1] (at a saturating allylic alcohol concentration), the “t1/2 life for the enzyme” value was determined as 8 s. Further, on 3α-HSD [1] (comparison of the rate of oxidation with that of enzyme inactivation), the “molecules of the allylic alcohol oxidized for every molecule of enzyme inactivated” value is recorded as no more than 10 molecules. Moreover, the partition ratio kcat/kinact at 3α-HSD [1] (estimated, theoretical limit 1) is given as 5.3. Further, on 3α-HSD [1], the “return of enzyme activity after inactivation” value was “enzyme activity does not return” and the “inactivation of 3α-HSD” value is given as “highly selective mechanism-based inactivators; also recorded: time-dependent loss of 3α-HSD activity”. In addition, the Ki at 3α-HSD [1] (method of Kitz and Wilson, in the presence of NAD+) came out at 1200 µM. In addition, in data set [2], the “selectivity as suicide substrate among the screened enzymes” value is listed as “only rat liver 3α-HSD effectively oxidized the alcohols”.

As for `C[C@]12CCC(=O)C[C@@H]1CC[C@@H]1[C@@H]2CC[C@]2(C)[C@@H](OC(=O)CBr)CC[C@@H]12` [17β-bromoacetoxy-5α-androstan-17β-ol-3-one, reference compound], the “binding of the inactivated enzyme to the immobilized nucleotide analog” value (“binding … to the immobilized nucleotide analog” below) on 3α-HSD [3] is on record as “bind tightly”.

In the case of `C=CC(=O)c1ccc([N+](=O)[O-])cc1` [III, 1-(4'-nitrophenyl)-2-propen-1-one], at 3α-HSD [3], the “binding … to the immobilized nucleotide analog” value is listed as “no affinity”. In addition, on cyclooxygenase, the “inactivation of cyclooxygenase / prostaglandin synthases” value is “irreversibly inactivate prostaglandin synthases in a time dependent manner”. In addition, at cyclooxygenase (listed as iii), the “inactivation of cyclooxygenase / prostaglandin synthases” value was “time and concentration dependent inactivation”. Besides, the “t1/2 life at saturation” value on cyclooxygenase (semi-purified cyclooxygenase from sheep seminal vesicle microsomes) fell in the range of 60 to 120 s. For the same molecule, the IC50 at cyclooxygenase (semi-purified cyclooxygenase from sheep seminal vesicle microsomes, read-out: concentration required to inactivate 50% of the enzyme activity) was determined as 837 µM. For the same molecule, at 3α-HSD [4], the “protection of 3α-HSD from inactivation by NAD+” value is on record as “complete protection”; the “protection of 3α-HSD from inactivation by androsterone and other compounds competitive for the steroid binding site” value is on record as “slow the rate of inactivation but do not completely block this event”; the “type of inhibition versus NAD+ binding” value was “competitive inhibitors”; the “type of inhibition versus androsterone binding” value is given as “non-competitive or mixed inhibitors”. The “inactivation of 3α-HSD” value at 3α-HSD [1] was “stoichiometric inactivators; also recorded: too fast to accurately measure; also recorded: rapid and stoichiometric”.

Consider `C#CC(=O)c1ccc([N+](=O)[O-])cc1` [IV, 1-(4'-nitrophenyl)-2-propyn-1-one], for which the “binding … to the immobilized nucleotide analog” value at 3α-HSD [3] is “no affinity”. On cyclooxygenase, the “inactivation of cyclooxygenase / prostaglandin synthases” value is recorded as “irreversibly inactivate prostaglandin synthases in a time dependent manner”. In addition, at cyclooxygenase (listed as iv), the “inactivation of cyclooxygenase / prostaglandin synthases” value is “time and concentration dependent inactivation”. Besides, at 3α-HSD [4], the “protection of 3α-HSD from inactivation by NAD+” value is listed as “complete protection”; the “protection of 3α-HSD from inactivation by androsterone and other compounds competitive for the steroid binding site” value was “slow the rate of inactivation but do not completely block this event”; the “type of inhibition versus NAD+ binding” value is recorded as “competitive inhibitors”; the “type of inhibition versus androsterone binding” value was “non-competitive or mixed inhibitors”. For the same molecule, the “inactivation of 3α-HSD” value on 3α-HSD [1] is “stoichiometric inactivators; also recorded: rapid and stoichiometric”.

In the case of `C#CC(O)c1ccc([N+](=O)[O-])cc1` (stereo not drawn) [II, 1-(4'-nitrophenyl)-2-propyn-1-ol], on 3α-HSD [1], the “return of enzyme activity after inactivation” value is “enzyme activity does not return” and the “inactivation of 3α-HSD” value is “highly selective mechanism-based inactivators”. The “selectivity as suicide substrate among the screened enzymes” value in data set [2] was “only rat liver 3α-HSD effectively oxidized the alcohols”.

B1: 3α-HSD (Rattus norvegicus) (protein)
chain: T2 sequence (P23457 1-322)
notes: the purified 3α-HSD of rat liver cytosol; from tissue; host or cells: rat liver (cytosol)
On to B1, for which the Km in data set [5] is 2020 µM. Besides, the Vmax was 0.58 µmol/min/mg in data set [5] and 0.3 µmol/min/mg in data set [6].
